Test results taken from PubChem BioAssay AID1963450 (Molecular Pharmacology Branch, DTP, NCI, 2024).
Where “and” joins values, the source holds several entries; their conditions need not be identical. Equal values may be shown once.

Tested on: 556581-035-R-J1-PDC complex spheroid growth
Experiment: Anticancer human tumor 556581-035-R-J1-PDC patient-derived ovarian carcinoma cell line growth inhibition [Asc]
Settings: for viability, T/C: stronger effect = lower value
Experimental: Multicellular complex tumor spheroid response to apoptosis pathway targeting inhibitors Alrizomadlin, Pelcitoclax, and Dasminapant in combination with a variety of drugs and investigational agents in selected tumor cell lines
The MDM2 inhibitor alrizomadlin, the Bcl-2/Bcl-xL inhibitor pelcitoclax, and the IAPs inhibitor dasminapant were evaluated both individually and in combination with standard of care and investigational anticancer small molecules within a complex spheroid model of solid tumors. . Complex spheroids include a stromal component modeled by human endothelial cells (HUVEC) and fibroblasts modeled by human mesenchymal stem cells (MSCs). The concentration ranges selected for each drug and investigational agent were based upon clinically achievable concentrations if the clinical Cmax of the agent was known.
Compounds. The drugs and investigational agents: alrizomadlin (APG-115; NSC831270), pelcitoclax (APG-1252; NSC835773), dasminapant (APG-1387;NSC834197), TAK-243 (NSC785004), copanlisib (NSC809693), olaparib (NSC753686), talazoparib (NSC767125), cobimetinib (NSC 768068), eltanexor (KPT-8602, NSC 794443), abemaciclib (NSC 768073), sotorasib (NSC818433), adagrasib (NSC 831453), MRTX-1133 (NSC 836407), Iadademestat (ORY1001, NSC 806812), and RMC-4630 (NSC839698), were obtained from the NCI Developmental Therapeutics Program Chemical Repository. The FDA-approved anticancer drug set is available from the Developmental Therapeutics Program at https://dtp.cancer.gov/organization/dscb/obtaining/available plates.htm. […] The stock solutions were prepared in dimethyl sulfoxide (DMSO, Sigma-Aldrich, St. Louis, MO, cat. D2650) at 800-fold the tested concentration and stored at -70 degrees C prior to their use. All drugs and investigational agents were tested over a range starting from a high concentration at or near the clinical Cmax and decreasing in half-log increments. If the clinical Cmax for an agent had not been determined, the highest concentration tested was 10 microM.
The patient-derived cancer (PDC) cell lines include five colon adenocarcinomas: 186277-243-T-J2-PDC, 616215-338-R-J1-PDC, 439559-082-T-J2-PDC, 463943-066-T-J2-PDC, and 519858-162-T-J1-PDC; three pancreatic carcinomas: 323965-272-R-J2-PDC, 521955-158-R6-J3-PDC, and 521955-158-R2-J5-PDC; two uterine sarcomas: 327498-152-R-J2-PDC and 993429-296-R-J1-PDC; two rhabdomyosarcomas: 755483-174-R-J1-PDC and 772245-204-R-J1-PDC; two soft tissue sarcomas: 126254-015-R-J1-PDC and 494315-158-R-J1-PDC; two malignant fibrous histiocytomas: 317291-083-R-J1-PDC and 596521-263-R-J1-PDC; two breast carcinomas: 171881-019-R-J1-PDC and 885512-296-R-J2-PDC; and one ovarian carcinoma: 6556581-035-R-J-PDC were obtained from the NCI PDMR, (https://pdmr.cancer.gov). The established cell lines HSSY-2 synovial sarcoma (RRID:CVCL 8719), SYO-1 synovial sarcoma (RRID:CVCL_7146), MPNST malignant peripheral neural sheath tumor were obtained from the Sloan Kettering Institute. The following established cell lines were purchased from the American Type Culture Collection (ATCC, Manassas, VA), Sor the received from the NCI repository:, PANC-1 pancreatic carcinoma (CRL-1469, RRID:CVCL_0480), OVCAR-5 ovarian carcinoma (RRID:CVCL_1628), OVCAR-8 ovarian carcinoma (RRID:CVCL_1629), , MCF-7 breast carcinoma (CRL-12584, RRID:CVCL_0031), MDA-MB-231 breast carcinoma (CRL-12532, RRID:CVCL_0062), NCI-H1876 small cell lung carcinoma (CRL-5902, RRID:CVCL_1503), NCI-H510A small cell lung carcinoma (HTB-184, RRID:CVCL_1565), NCI-H1417 (CRL-5869, RRID:CVCL_1469), and NCI-H196 small cell lung carcinoma (CRL-5823, RRID:CVCL_1509). Dr. Peter Houghton (Greehey Children's Cancer Research Institute, University of Texas Health Science Center, San Antonio, TX) provided Rh-18 rhabdomyosarcoma (RRID:CVCL_1659). Pooled donor human umbilical vein endothelial cells (HUVEC, Lonza, cat. CC-2519) and human mesenchymal stem cells (hMSC, Lonza, cat. PT-2501) were purchased from Lonza (Walkersville, MD).
Cell Culture. […]

[1] = curve of first compound, second compound 0.1 µM
[2] = curve of first compound, second compound 0.316 µM
[3] = curve of first compound, second compound 1 µM
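Further: spheroids exposed to agents for 7 days before viability read.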

What does the source list for `CCN1C(C(=O)NC23CCC(C(=O)O)(CC2)CC3)C(c2cccc(Cl)c2F)C2(C(=O)Nc3cc(Cl)ccc32)C12CCCCC2` (configuration not stated) + Cc1c(S(C)(=O)=O)c(-c2cc(F)cc(N3CCN(c4ccc(NS(=O)(=O)c5ccc(NC(CCN6CCC(C(=O)OCCCP(=O)(O)O)CC6)CSc6ccccc6)c(S(=O)(=O)C(F)(F)F)c5)cc4)CC3)c2)c(-c2ccc(Cl)cc2)n1C(C)C?
IC50 [1]: > 3 µM; IC50 [2]: > 3 µM; IC50 [3]: > 3 µM; IC50 (curve of first compound, second compound 3.16 µM): > 3 µM; IC50 (curve of first compound, second compound 10 µM): 0.812 µM; viability, T/C (second compound 0.1 µM, first compound 0.00949 µM): 80.2%; viability, T/C (second compound 0.1 µM, first compound 0.03 µM): 84.5%; viability, T/C (second compound 0.1 µM, first compound 0.0949 µM): 89.2%; viability, T/C (second compound 0.1 µM, first compound 0.3 µM): 81.3%; viability, T/C (second compound 0.1 µM, first compound 0.949 µM): 82%; viability, T/C (second compound 0.1 µM, first compound 3 µM): 75.8%; viability, T/C (second compound 0.316 µM, first compound 0.00949 µM): 82.2%; viability, T/C (second compound 0.316 µM, first compound 0.03 µM): 77.6%; viability, T/C (second compound 0.316 µM, first compound 0.0949 µM): 85.3%; viability, T/C (second compound 0.316 µM, first compound 0.3 µM): 68.3%; viability, T/C (second compound 0.316 µM, first compound 0.949 µM): 64%; viability, T/C (second compound 0.316 µM, first compound 3 µM): 66.4%; viability, T/C (second compound 1 µM, first compound 0.00949 µM): 87%; viability, T/C (second compound 1 µM, first compound 0.03 µM): 74.2%; viability, T/C (second compound 1 µM, first compound 0.0949 µM): 80.1%; viability, T/C (second compound 1 µM, first compound 0.3 µM): 78.1%; viability, T/C (second compound 1 µM, first compound 0.949 µM): 60.2%; viability, T/C (second compound 1 µM, first compound 3 µM): 52.1%; viability, T/C (second compound 3.16 µM, first compound 0.00949 µM): 65.8%; viability, T/C (second compound 3.16 µM, first compound 0.03 µM): 68.3%; viability, T/C (second compound 3.16 µM, first compound 0.0949 µM): 74.8%; viability, T/C (second compound 3.16 µM, first compound 0.3 µM): 69.4%; viability, T/C (second compound 3.16 µM, first compound 0.949 µM): 77.1%; viability, T/C (second compound 3.16 µM, first compound 3 µM): 47.2%; viability, T/C (second compound 10 µM, first compound 0.00949 µM): 60.2%; viability, T/C (second compound 10 µM, first compound 0.03 µM): 67.6%; viability, T/C (second compound 10 µM, first compound 0.0949 µM): 55.6%; viability, T/C (second compound 10 µM, first compound 0.3 µM): 58.7%; viability, T/C (second compound 10 µM, first compound 0.949 µM): 49%; viability, T/C (second compound 10 µM, first compound 3 µM): 30.8%

Which viability, T/C (compound 0.0316 µM) does the source give for `C=CC(=O)N1CCN(c2nc(=O)n(-c3c(C)ccnc3C(C)C)c3nc(-c4c(O)cccc4F)c(F)cc23)C(C)C1` (configuration not stated) here?
The viability, T/C was 111% and 113% and 95.5%.

What about the viability, T/C (compound 0.1 µM) of the same compound?
Its viability, T/C is 88.9% and 109% and 106%.

And the viability, T/C (compound 0.316 µM)?
The viability, T/C was 104% and 110% and 108%.

What about the viability, T/C (compound 1 µM) of the same compound?
The viability, T/C was 83.5% and 88.5% and 109%.

And the viability, T/C (compound 3.16 µM)?
The viability, T/C was 99% and 99.9% and 109%.

What about the viability, T/C (compound 10 µM) of the same compound?
The viability, T/C was 111% and 76.8% and 107%.

What about the IC50 (curve of compound) of the same compound?
The IC50 was > 10 µM.

`C=CC(=O)N1CCN(c2nc(=O)n(-c3c(C)ccnc3C(C)C)c3nc(-c4c(O)cccc4F)c(F)cc23)C(C)C1` (configuration not stated) + CNC(C)C(=O)NC1CN(S(=O)(=O)c2cccc(S(=O)(=O)N3CCC4CCC(C(=O)NC(c5ccccc5)c5ccccc5)N4C(=O)C(NC(=O)C(C)NC)C3)c2)CCC2CCC(C(=O)NC(c3ccccc3)c3ccccc3)N2C1=O was tested. Which IC50 (curve of first compound, second compound 0.01 µM) did it give?
Its IC50 is > 10 µM.

What about the IC50 (curve of first compound, second compound 0.0316 µM) of the same compound?
Its IC50 is > 10 µM.

And the IC50 [1]?
The IC50 was > 10 µM.

What about the IC50 [2] of the same compound?
The IC50 was > 10 µM.

What about the IC50 [3] of the same compound?
The IC50 was > 10 µM.

And the viability, T/C (second compound 0.01 µM, first compound 0.0316 µM)?
Its viability, T/C is 88.6%.

And the viability, T/C (second compound 0.01 µM, first compound 0.1 µM)?
Its viability, T/C is 90%.

And the viability, T/C (second compound 0.01 µM, first compound 0.316 µM)?
The viability, T/C was 82.4%.

What about the viability, T/C (second compound 0.01 µM, first compound 1 µM) of the same compound?
The viability, T/C was 101%.

And the viability, T/C (second compound 0.01 µM, first compound 3.16 µM)?
Its viability, T/C is 103%.

What about the viability, T/C (second compound 0.01 µM, first compound 10 µM) of the same compound?
The viability, T/C was 86.5%.

What about the viability, T/C (second compound 0.0316 µM, first compound 0.0316 µM) of the same compound?
Its viability, T/C is 95%.

And the viability, T/C (second compound 0.0316 µM, first compound 0.1 µM)?
Its viability, T/C is 98%.

And the viability, T/C (second compound 0.0316 µM, first compound 0.316 µM)?
The viability, T/C was 83%.

And the viability, T/C (second compound 0.0316 µM, first compound 1 µM)?
Its viability, T/C is 91.5%.

What about the viability, T/C (second compound 0.0316 µM, first compound 3.16 µM) of the same compound?
Its viability, T/C is 94.3%.

What about the viability, T/C (second compound 0.0316 µM, first compound 10 µM) of the same compound?
Its viability, T/C is 78.8%.

What about the viability, T/C (second compound 0.1 µM, first compound 0.0316 µM) of the same compound?
The viability, T/C was 98.3%.

What about the viability, T/C (second compound 0.1 µM, first compound 0.1 µM) of the same compound?
The viability, T/C was 81.5%.

What about the viability, T/C (second compound 0.1 µM, first compound 0.316 µM) of the same compound?
The viability, T/C was 89.1%.

What about the viability, T/C (second compound 0.1 µM, first compound 1 µM) of the same compound?
Its viability, T/C is 95.3%.

What about the viability, T/C (second compound 0.1 µM, first compound 3.16 µM) of the same compound?
Its viability, T/C is 91.3%.

And the viability, T/C (second compound 0.1 µM, first compound 10 µM)?
The viability, T/C was 100%.

And the viability, T/C (second compound 0.316 µM, first compound 0.0316 µM)?
Its viability, T/C is 92.3%.

And the viability, T/C (second compound 0.316 µM, first compound 0.1 µM)?
Its viability, T/C is 85.2%.

And the viability, T/C (second compound 0.316 µM, first compound 0.316 µM)?
The viability, T/C was 94.2%.

What about the viability, T/C (second compound 0.316 µM, first compound 1 µM) of the same compound?
Its viability, T/C is 79.8%.

And the viability, T/C (second compound 0.316 µM, first compound 3.16 µM)?
The viability, T/C was 78.9%.

And the viability, T/C (second compound 0.316 µM, first compound 10 µM)?
The viability, T/C was 81.4%.

And the viability, T/C (second compound 1 µM, first compound 0.0316 µM)?
Its viability, T/C is 79.5%.

What about the viability, T/C (second compound 1 µM, first compound 0.1 µM) of the same compound?
The viability, T/C was 71.5%.

What about the viability, T/C (second compound 1 µM, first compound 0.316 µM) of the same compound?
The viability, T/C was 86.3%.

And the viability, T/C (second compound 1 µM, first compound 1 µM)?
The viability, T/C was 74.8%.

What about the viability, T/C (second compound 1 µM, first compound 3.16 µM) of the same compound?
The viability, T/C was 87.2%.

What about the viability, T/C (second compound 1 µM, first compound 10 µM) of the same compound?
The viability, T/C was 66.5%.
